Measured values reported in patent US5210193A, “Piperazine derivatives” (American Cyanamid Company, priority 1990, dated 1993).
Converted amounts (≈) assume the structure as drawn.

Legend:
Klebsiella pneumoniae AD [1] = experiment: in vivo antibacterial activity, survival of infected mice (Table II); parameters: species or system Charles River CD-1 mice; conditions: subcutaneous
Protocol: Charles River CD-1 mice were infected with either Klebsiella pneumoniae AD or Staphylococcus aureus Smith. A single subcutaneous dose of the test compound was administered 1/2 hour after infection. […] The results appear in Tables II and III, wherein the representative test compounds are identified by the number of their hereinafter described examples.

[2] = test system: Proteus rettgeri CMC 84-41; experiment: in vitro antibacterial MIC, agar plate dilution; assay type: cell-based; conditions: Providencia rettgeri, CMC8441, 18 h, 35° C., read-out: MIC
Protocol: (§1) The in vitro antimicrobial spectrum of the compounds of ths invention were determined by the agar plate dilution method with Mueller-Hinton agar and an inoculum of each test organism of approximately 10^4 colony forming units delivered by the Steers replicating device. The minimal inhibitory concentration (MIC) in mcg/ml is defined as the lowest concentration of test compound that inhibited visible growth after 18 hours incubation at 35° C. Results are given in Table I, with the test compounds identified by the number of their hereinafter described examples.

[3] = test system: Klebsiella pneumoniae MOR 84-4; experiment: in vitro antibacterial MIC, agar plate dilution; assay type: cell-based; conditions: Klebsiella pneumoniae, MOR844, 18 h, 35° C., read-out: MIC
Protocol: as §1

[4] = test system: Morganella morganii VGH 84-11; experiment: in vitro antibacterial MIC, agar plate dilution; assay type: cell-based; conditions: VGH8411, 18 hours, 35° C., read-out: MIC
Protocol: as §1

[5] = test system: Pseudomonas aeruginosa VGH 84-4; experiment: in vitro antibacterial MIC, agar plate dilution; assay type: cell-based; conditions: Pseudomonas aeruginosa, VGH844, 18 h, 35° C., read-out: MIC
Protocol: as §1

[6] = test system: Escherichia coli ATCC 25922; experiment: in vitro antibacterial MIC, agar plate dilution; assay type: cell-based; conditions: Escherichia coli, ATCC25922, 18 h, 35° C., read-out: MIC
Protocol: as §1

[7] = test system: Enterobacter aerogenes VGH 84-36; experiment: in vitro antibacterial MIC, agar plate dilution; assay type: cell-based; conditions: Klebsiella aerogenes, VGH8436, 18 hours, 35° C., read-out: MIC
Protocol: as §1

[8] = test system: Escherichia coli CMC 84-11; experiment: in vitro antibacterial MIC, agar plate dilution; assay type: cell-based; conditions: Escherichia coli, CMC8411, 18 h, 35° C., read-out: MIC
Protocol: as §1

[9] = test system: Staphylococcus aureus Smith; experiment: in vitro antibacterial MIC, agar plate dilution; assay type: cell-based; conditions: Staphylococcus aureus, 18 h, 35° C., read-out: MIC
Protocol: as §1

[10] = test system: Staphylococcus aureus ATCC 25913; experiment: in vitro antibacterial MIC, agar plate dilution; assay type: cell-based; conditions: ATCC25913, 18 hours, 35° C.
Protocol: as §1

Klebsiella pneumoniae AD [11] = experiment: in vitro antibacterial MIC, agar plate dilution; assay type: cell-based; conditions: Klebsiella pneumoniae, 18 h, 35° C., read-out: MIC
Protocol: as §1

[12] = test system: Enterobacter cloacae VGH 84-37; experiment: in vitro antibacterial MIC, agar plate dilution; assay type: cell-based; conditions: Enterobacter cloacae, VGH8437, 18 h, 35° C., read-out: MIC
Protocol: as §1

SMILES	Survival Ratio 7 Days After Infection (Klebsiella pneumoniae AD [1]; 0.25 mg/kg single dose)	Survival Ratio 7 Days After Infection (Klebsiella pneumoniae AD [1]; 1 mg/kg single dose)	Survival Ratio 7 Days After Infection (Klebsiella pneumoniae AD [1]; 4 mg/kg single dose)	Survival Ratio 7 Days After Infection (Klebsiella pneumoniae AD [1]; 16 mg/kg single dose)	MIC [2]	MIC [3]	MIC [4]	MIC [5]	MIC [6]	MIC [7]	MIC [8]	MIC [9]	MIC [10]	MIC (Klebsiella pneumoniae AD [11])	MIC [12]	Survival Ratio 7 Days After Infection (Klebsiella pneumoniae AD [1]; 0.5 mg/kg single dose)	Survival Ratio 7 Days After Infection (Klebsiella pneumoniae AD [1]; 2 mg/kg single dose)	Survival Ratio 7 Days After Infection (Klebsiella pneumoniae AD [1]; 8 mg/kg single dose)
CN(C)CC1CNCCN1 (stereo not drawn) [Example 1, N,N-Dimethyl-2-piperazinemethanamine]	0/5	0/5	1/5	5/5	–	–	–	–	–	–	–	–	–	–	–	–	–	–
CCn1cc(C(=O)O)c(=O)c2cc(F)c(N3CCNC(CN(C)C)C3)cc21 (stereo not drawn) [Example 2, 7-[3-[(Dimethylamino)methyl]-1-piperazinyl]-1-ethyl-6-fluoro-1,4-dihvdro-4-oxo-3-quinolinecarboxylic acid]	–	–	–	–	2 µg/mL (≈ 5.31 µM)	4 µg/mL (≈ 10.6 µM)	2 µg/mL (≈ 5.31 µM)	16 µg/mL (≈ 42.5 µM)	2 µg/mL (≈ 5.31 µM)	4 µg/mL (≈ 10.6 µM)	2 µg/mL (≈ 5.31 µM)	0.5 µg/mL (≈ 1.33 µM)	2 µg/mL (≈ 5.31 µM)	2 µg/mL (≈ 5.31 µM)	1 µg/mL (≈ 2.66 µM)	–	–	–
CCn1cc(C(=O)O)c(=O)c2cc(F)c(N3CCNC(COC)C3)cc21 (stereo not drawn) [Example 7, 1-Ethyl-6-fluoro-1,4-dihydro-7-[3-(methoxymethyl)-1-piperazinyl]-4-oxo-3-quinolinecarboxylic acid]	–	–	–	–	0.5 µg/mL (≈ 1.38 µM)	0.5 µg/mL (≈ 1.38 µM)	0.25 µg/mL (≈ 0.688 µM)	8 µg/mL (≈ 22 µM)	0.5 µg/mL (≈ 1.38 µM)	0.5 µg/mL (≈ 1.38 µM)	0.25 µg/mL (≈ 0.688 µM)	0.5 µg/mL (≈ 1.38 µM)	2 µg/mL (≈ 5.5 µM)	0.25 µg/mL (≈ 0.688 µM)	0.25 µg/mL (≈ 0.688 µM)	–	–	–
CCn1cc(C(=O)O)c(=O)c2cc(F)c(N3CCNC(COc4ccccc4)C3)cc21 (stereo not drawn) [Example 9, 1-Ethyl-6-fluoro-1,4-dihydro-4-oxo-7-[3-(phenoxy-methyl]-1-piperazinyl]-3-quinolinecarboxylic acid]	–	–	–	–	0.5 µg/mL (≈ 1.18 µM)	0.5 µg/mL (≈ 1.18 µM)	0.5 µg/mL (≈ 1.18 µM)	8 µg/mL (≈ 18.8 µM)	0.5 µg/mL (≈ 1.18 µM)	1 µg/mL (≈ 2.35 µM)	0.5 µg/mL (≈ 1.18 µM)	≤ 0.12 µg/mL	0.5 µg/mL (≈ 1.18 µM)	0.5 µg/mL (≈ 1.18 µM)	0.25 µg/mL (≈ 0.588 µM)	–	–	–
CCn1cc(C(=O)O)c(=O)c2cc(F)c(N3CCN(C)C(COC)C3)cc21 (stereo not drawn) [Example 10, 1-Ethyl-6-fluoro-1,4-dihydro-7-[3-(methoxymethyl)-4-methyl-1-piperazinyl]-4-oxo-3-quinolinecarboxylic acid]	–	–	–	–	0.5 µg/mL (≈ 1.32 µM)	2 µg/mL (≈ 5.3 µM)	2 µg/mL (≈ 5.3 µM)	32 µg/mL (≈ 84.8 µM)	2 µg/mL (≈ 5.3 µM)	2 µg/mL (≈ 5.3 µM)	1 µg/mL (≈ 2.65 µM)	1 µg/mL (≈ 2.65 µM)	2 µg/mL (≈ 5.3 µM)	1 µg/mL (≈ 2.65 µM)	1 µg/mL (≈ 2.65 µM)	–	–	–
CCn1cc(C(=O)O)c(=O)c2cc(F)c(N3CCN(C)C(COc4ccccc4)C3)cc21 (stereo not drawn) [Example 11, 1-Ethyl-6-fluoro-1,4-dihydro-7-[4-methyl-3-(phenoxy-methyl)-1-piperazinyl]-4-oxo-3-quinolinecarboxylic acid]	–	–	–	–	2 µg/mL (≈ 4.55 µM)	8 µg/mL (≈ 18.2 µM)	4 µg/mL (≈ 9.1 µM)	64 µg/mL (≈ 146 µM)	4 µg/mL (≈ 9.1 µM)	8 µg/mL (≈ 18.2 µM)	2 µg/mL (≈ 4.55 µM)	1 µg/mL (≈ 2.28 µM)	2 µg/mL (≈ 4.55 µM)	4 µg/mL (≈ 9.1 µM)	4 µg/mL (≈ 9.1 µM)	–	–	–
CCn1cc(C(=O)O)c(=O)c2cc(F)c(N3CCNC(c4ccc(Br)s4)C3)cc21 (stereo not drawn) [Example 13, 7-[3-(5-Bromo-2-thienyl)-1-piperazinyl]-1-ethyl-6-fluoro-1,4-dihydro-4-oxo-3-quinolinecarboxylic acid]	–	–	–	–	16 µg/mL (≈ 33.3 µM)	64 µg/mL (≈ 133 µM)	16 µg/mL (≈ 33.3 µM)	> 256 µg/mL	16 µg/mL (≈ 33.3 µM)	> 256 µg/mL	16 µg/mL (≈ 33.3 µM)	0.5 µg/mL (≈ 1.04 µM)	2 µg/mL (≈ 4.16 µM)	16 µg/mL (≈ 33.3 µM)	32 µg/mL (≈ 66.6 µM)	–	–	–
Clc1ccc2oc(C3CNCCN3)cc2c1 (stereo not drawn) [Example 17, 2-(5-Chloro-2-benzofuranyl)piperazine]	0/5	0/5	1/5	5/5	–	–	–	–	–	–	–	–	–	–	–	0/5	0/5	5/5
CCn1cc(C(=O)O)c(=O)c2cc(F)c(N3CCNC(c4cccs4)C3)cc21 (stereo not drawn) [Example 26, 1-Ethyl-6-fluoro-1,4-dihydro-4-oxo-7-[3-(2-thienyl)-1-piperazinyl]-3-auinolinecarboxylic acid]	–	–	–	–	1 µg/mL (≈ 2.49 µM)	1 µg/mL (≈ 2.49 µM)	0.5 µg/mL (≈ 1.25 µM)	16 µg/mL (≈ 39.9 µM)	1 µg/mL (≈ 2.49 µM)	2 µg/mL (≈ 4.98 µM)	0.5 µg/mL (≈ 1.25 µM)	0.25 µg/mL (≈ 0.623 µM)	0.5 µg/mL (≈ 1.25 µM)	1 µg/mL (≈ 2.49 µM)	0.5 µg/mL (≈ 1.25 µM)	–	–	–
CCn1cc(C(=O)O)c(=O)c2cc(F)c(N3CCN(C)C(c4cccs4)C3)cc21 (stereo not drawn) [Example 31, 1-Ethyl-6-fluoro-1,4-dihydro-7-[4-methyl-3-(2-thienyl)piperazinyl]-4-oxo-3-quinolinecarboxylic acid]	–	–	–	–	8 µg/mL (≈ 19.3 µM)	8 µg/mL (≈ 19.3 µM)	8 µg/mL (≈ 19.3 µM)	32 µg/mL (≈ 77 µM)	4 µg/mL (≈ 9.63 µM)	16 µg/mL (≈ 38.5 µM)	4 µg/mL (≈ 9.63 µM)	0.25 µg/mL (≈ 0.602 µM)	1 µg/mL (≈ 2.41 µM)	4 µg/mL (≈ 9.63 µM)	4 µg/mL (≈ 9.63 µM)	–	–	–
CCn1cc(C(=O)O)c(=O)c2cc(F)c(N3CCN(C)C(c4ccco4)C3)cc21 (stereo not drawn) [Example 32, 1-Ethyl-6-fluoro-7-[3-(2-furanyl)-4-methyl-1-piperazinyl]-1,4-dihydro-4-oxo-3-quinolinecarboxylic acid]	–	–	–	–	2 µg/mL (≈ 5.01 µM)	2 µg/mL (≈ 5.01 µM)	2 µg/mL (≈ 5.01 µM)	16 µg/mL (≈ 40.1 µM)	1 µg/mL (≈ 2.5 µM)	4 µg/mL (≈ 10 µM)	1 µg/mL (≈ 2.5 µM)	0.25 µg/mL (≈ 0.626 µM)	1 µg/mL (≈ 2.5 µM)	2 µg/mL (≈ 5.01 µM)	1 µg/mL (≈ 2.5 µM)	–	–	–
CCn1cc(C(=O)O)c(=O)c2cc(F)c(N3CCNC(c4ccc(Cl)s4)C3)cc21 (stereo not drawn) [Example 34, 7-[3-(5-Chloro-2-thienyl)-1-piperazinyl]-1-ethyl-6-fluoro-1,4-dihydro-4-oxo-3-quinolinecarboxylic acid]	–	–	–	–	1 µg/mL (≈ 2.29 µM)	2 µg/mL (≈ 4.59 µM)	1 µg/mL (≈ 2.29 µM)	16 µg/mL (≈ 36.7 µM)	1 µg/mL (≈ 2.29 µM)	4 µg/mL (≈ 9.18 µM)	1 µg/mL (≈ 2.29 µM)	0.25 µg/mL (≈ 0.574 µM)	0.25 µg/mL (≈ 0.574 µM)	1 µg/mL (≈ 2.29 µM)	1 µg/mL (≈ 2.29 µM)	–	–	–
CCn1cc(C(=O)O)c(=O)c2cc(F)c(N3CCN(C)C(c4ccsc4)C3)cc21 (stereo not drawn) [Example 35, 1Ethyl-6-fluoro-1,4-dihydro-7-[4-methyl-3-(3-thienyl)-1-piperazinyl]-4-oxo-3-quinolinecarboxylic acid]	–	–	–	–	2 µg/mL (≈ 4.81 µM)	4 µg/mL (≈ 9.63 µM)	2 µg/mL (≈ 4.81 µM)	32 µg/mL (≈ 77 µM)	2 µg/mL (≈ 4.81 µM)	4 µg/mL (≈ 9.63 µM)	1 µg/mL (≈ 2.41 µM)	≤ 0.12 µg/mL	0.5 µg/mL (≈ 1.2 µM)	2 µg/mL (≈ 4.81 µM)	2 µg/mL (≈ 4.81 µM)	–	–	–
CCn1cc(C(=O)O)c(=O)c2cc(F)c(N3CCN(C)C(c4ccc(C)s4)C3)cc21 (stereo not drawn) [Example 38, 1-Ethyl-6-fluoro-1,4-dihydro-7-[4-methyl-3-(5-methyl-2-thienyl)-1-piperazinyl]-4-oxo-3-quinolinecarboxylic acid]	–	–	–	–	4 µg/mL (≈ 9.31 µM)	8 µg/mL (≈ 18.6 µM)	8 µg/mL (≈ 18.6 µM)	> 256 µg/mL	4 µg/mL (≈ 9.31 µM)	4 µg/mL (≈ 9.31 µM)	4 µg/mL (≈ 9.31 µM)	0.25 µg/mL (≈ 0.582 µM)	0.25 µg/mL (≈ 0.582 µM)	4 µg/mL (≈ 9.31 µM)	8 µg/mL (≈ 18.6 µM)	–	–	–
CCn1cc(C(=O)O)c(=O)c2cc(F)c(N3CCNC(c4cc(C)cs4)C3)cc21 (stereo not drawn) [Example 40, 1-Ethyl-6-fluoro-1,4-dihydro-7-[3-(4-methyl-2-thienyl)-1-piperazinyl]-4-oxo-3-quinolinecarboxylic acid]	–	–	–	–	0.5 µg/mL (≈ 1.2 µM)	0.5 µg/mL (≈ 1.2 µM)	0.5 µg/mL (≈ 1.2 µM)	8 µg/mL (≈ 19.3 µM)	0.5 µg/mL (≈ 1.2 µM)	0.5 µg/mL (≈ 1.2 µM)	0.25 µg/mL (≈ 0.602 µM)	≤ 0.12 µg/mL	0.25 µg/mL (≈ 0.602 µM)	0.5 µg/mL (≈ 1.2 µM)	0.5 µg/mL (≈ 1.2 µM)	–	–	–
CCn1cc(C(=O)O)c(=O)c2cc(F)c(N3CCNC(c4ccc(C)o4)C3)cc21 (stereo not drawn) [Example 42, 1-Ethyl-6-fluoro-1,4-dihydro-7-[3-(5-methyl-2-furanyl)-1-piperazinyl]-4-oxo-3-quinolinecarboxylic acid]	–	–	–	–	0.25 µg/mL (≈ 0.626 µM)	0.25 µg/mL (≈ 0.626 µM)	0.25 µg/mL (≈ 0.626 µM)	4 µg/mL (≈ 10 µM)	0.25 µg/mL (≈ 0.626 µM)	0.5 µg/mL (≈ 1.25 µM)	≤ 0.12 µg/mL	≤ 0.12 µg/mL	≤ 0.12 µg/mL	≤ 0.12 µg/mL	0.25 µg/mL (≈ 0.626 µM)	–	–	–
